Data from US20160058735A1, “METHODS OF TREATING HYPERHIDROSIS” (Dermira, Inc., priority 2014, published 2016).

What was measured:
[1] = system: patients with severe primary axillary hyperhidrosis; assay: Phase 2a clinical trial: axillary sweat production; type: in vivo, human
Protocol: (§1) The completed Phase 2a clinical trial was a randomized, double-blind study in 38 patients with severe primary axillary hyperhidrosis.
Efficacy was evaluated based on axillary sweat production and disease severity. Assessments were conducted approximately weekly during the four-week treatment period and two weeks after the end of this treatment period. Disease severity was measured using a widely-used patient-reported outcome tool called the Hyperhidrosis Disease Severity Scale, or HDSS, wherein patients rate the severity of their disease on a four-point scale. Patients who rate the severity of their disease as a three or a four on the HDSS are considered to have severe disease, while those who rate it as one or two are considered to have mild or moderate disease. […] Trial inclusion criteria required that prior to the start of treatment, all patients produce at least 50 mg of sweat in each axilla over a five-minute period.

[2] = system: patients with severe primary axillary hyperhidrosis; assay: Study DRM04-HH01 (Phase 2b): adverse events
Protocol: Assessments were conducted approximately weekly during the four-week treatment period and the two-week period after the end of this treatment period. […] Trial inclusion criteria required that prior to the start of treatment, all patients produce at least 50 mg of sweat in each axilla over a five-minute period.

[3] = system: patients with severe primary axillary hyperhidrosis; assay: Phase 2a clinical trial: disease severity by Hyperhidrosis Disease Severity Scale (HDSS); type: in vivo, human; conditions: Formulation A, 2% and 4% pooled; first on-treatment assessment, about one week
Protocol: as §1
Patients were instructed to apply the study product once daily for four weeks using wipes saturated with either the topical formulation of the reference agent or vehicle only. Efficacy was evaluated based on axillary sweat production and disease severity. Assessments were conducted approximately weekly during the four-week treatment period and two weeks after the end of this treatment period. Disease severity was measured using a widely-used patient-reported outcome tool called the Hyperhidrosis Disease Severity Scale, or HDSS, wherein patients rate the severity of their disease on a four-point scale. Patients who rate the severity of their disease as a three or a four on the HDSS are considered to have severe disease, while those who rate it as one or two are considered to have mild or moderate disease. All 38 patients enrolled in the clinical trial rated the severity of their disease as a three or a four on the HDSS prior to the start of treatment. Trial inclusion criteria required that prior to the start of treatment, all patients produce at least 50 mg of sweat in each axilla over a five-minute period.

Structure (SMILES): C[N+]1(C)CCC(OC(=O)C(O)(c2ccccc2)C2CCCC2)C1.[Br-] (stereo not drawn) [reference agent, threo-glycopyrronium bromide]
- sweat production on average lower than at the start of therapy ([1]; Formulation A, nine patients, end of four-week treatment period): 61%
- reversibility of effect on sweating and disease severity ([1]; two weeks following cessation of therapy): appeared to be reversible
- patients who withdrew from the study due to adverse events ([2]; 1% cohort): 2.6%
- patients who withdrew from the study due to adverse events ([2]; 2% cohort): 5.0%
- patients who withdrew from the study due to adverse events ([2]; 3% cohort): 2.5%
- patients who withdrew from the study due to adverse events ([2]; 4% cohort): 20.0%
- most common TEAEs ([2]; in vivo): dry mouth, upper respiratory tract infection, dry skin and blurred vision
- treatment-related serious adverse events ([2]; in vivo): No treatment-related serious adverse events were reported
- patients reporting improvement in disease severity (HDSS) from severe to mild or moderate [3]: Nine of 12
